≈ marks a conversion by molar mass, not a printed value. Like-named read-outs stand apart in the source and are kept apart here.
Assays:
[1] = Solubility measurement (DMSO solution precipitation method); format: physicochemical; conditions: aqueous buffer, kinetic from dmso stock, ambient temperature
Summary of the method: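 Compound DMSO solution diluted into McIlvaine buffer (pH 4.5 or 6.8) to 250 μM final, shaken 24 h at ambient temperature. Precipitate removed by filtration. Filtrate concentration measured by LC-UV against a fully dissolved reference in acetonitrile/water (1:1).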

KRAS (G12C)::SOS1 = target: T1, KRAS (G12C)::SOS1 (Homo sapiens, UniProt P01116, C118S/C51S/C80L/G12C); assay: KRAS::SOS1 AlphaScreen binding assay, KRAS G12C
T1 construct: KRAS (G12C) 1-169, N-terminal 6His-tag for purification, cleaved off; 6His-tag (N, cleaved yes)

KRAS G12C Ba/F3 cells = KRAS G12C Ba/F3 cells (Homo sapiens, UniProt P01116, G12C, cells depend on it); assay: Ba/F3 proliferation assay, KRAS G12C; format: cell-based; conditions: 72 h, AlamarBlue; read-out: KRAS G12C Ba/F3 IC50
KRAS (G12D)::SOS1 = target: T2, KRAS (G12D)::SOS1 (Homo sapiens, UniProt P01116, G12D); assay: KRAS::SOS1 AlphaScreen binding assay, KRAS G12D
T2 construct: KRAS (G12D) 1-169, N-terminal 6His-tag, C-terminal avi-tag; 6His-tag (N); purchased Xtal BioStructures, Inc. (KRAS G12D); Viva Biotech Ltd (SOS1)

[2] = tested on: AsPC-1 cells (pancreatic cancer, G12D); assay: AsPC-1 CTG proliferation assay (120 h); format: cell-based; conditions: Homo sapiens, ASPC1, CellTiter-Glo
Experimental: The CTG assay is designed to measure quantitatively the proliferation of AsPC-1 cells (ATCC […]), using the CellTiter Glow Assay Kit (Promega G7571). Cells are grown in RPMI medium (ATCC) supplemented with Fetal Calf Serum (Life Technologies, Gibco BRL, Cat. No. 10270-106). On “day 0” 2000 AsPC-1 cells are seeded in 60 μL RPMI ATCC+10% FCS+ Penstrep in a 384-well plate, flat and clear bottom (Greiner, PNr. 781091). Cells are then incubated in the plates at 37° C. in a CO2 incubator overnight. On day 1, compounds (10 mM stock in DMSO) are added with the ECHO acoustic liquid handler system (Beckman Coulter), including DMSO controls. Plates are incubated for 120 h, and cell viability is measured using CellTiter-Glo luminescent cell viability reagent (Promega product code G7570). Viability (stated as percent of control) is defined as relative luminescence units RLU of each well divided by the RLU of cells in DMSO controls. IC50 values are determined from viability measurements by non-linear regression using a four-parameter model.

KRAS G12D Ba/F3 cells = KRAS G12D Ba/F3 cells (Homo sapiens, UniProt P01116, G12D, cells depend on it); assay: Ba/F3 proliferation assay, KRAS G12D; format: cell-based; conditions: 72 h, AlamarBlue; read-out: KRAS G12D Ba/F3 IC50
KRAS G12V Ba/F3 cells = KRAS G12V Ba/F3 cells (Homo sapiens, UniProt P01116, G12V, cells depend on it); assay: Ba/F3 proliferation assay, KRAS G12V; format: cell-based; conditions: 72 h, AlamarBlue; read-out: KRAS G12V Ba/F3 IC50
Experimental: To generate KRASG12-dependent Ba/F3 models, Ba/F3 cells are transduced with retroviruses containing vectors that harbor KRASG12 isoforms. Platinum-E cells (Cell Biolabs) are used for retrovirus packaging. Retrovirus is added to Ba/F3 cells. To ensure infection, 4 μg/mL polybrene is added and cells are spinfected. […] Cells with an infection efficiency of 10% to 20% are further cultivated and puromycin selection with 1 μg/mL is initiated. As a control, parental Ba/F3 cells are used to show selection status. Selection is considered successful when parental Ba/F3 cells cultures died. To evaluate the transforming potential of KRASG12 mutations, the growth medium is no longer supplemented with IL-3. Ba/F3 cells harboring the empty vector are used as a control. Approximately ten days before conducting the experiments, puromycin is left out. […] All treatments are performed in technical duplicates. […] AlamarBlue™(ThermoFisher), a viability stain, is added and fluorescence measured in the PerkinElmer Envision HTS Multilabel Reader. The raw data are imported into and analyzed with the Boehringer Ingelheim proprietary software MegaLab (curve fitting based on the program PRISM, GraphPad Inc.).

LOVO cells (CRC, G13D) = assay: LOVO CTG proliferation assay (120 h); format: cell-based; conditions: Homo sapiens, CellTiter-Glo
Experimental: LOVO cells (ATCC CCL-229) are dispensed into 384-well plates, flat and clear bottom (Greiner, PNr. 781091) at a density of 1000 cells per well in 60 μL DMEM (Sigma D6429)+10% Fetal Calf Serum (HyClone, PNr.: SH30084.03) and incubated at 37° C. in a CO2 incubator overnight. The next day, compounds (10 mM stock in DMSO) are added with the ECHO acoustic liquid handler system (Beckman Coulter), including DMSO controls. Plates are incubated for 120 h, and cell viability is measured using CellTiter-Glo luminescent cell viability reagent (Promega product code G7570). Viability (stated as percent of control) is defined as relative luminescence units RLU of each well divided by the RLU of cells in DMSO controls. IC50 values are determined from viability measurements by non-linear regression using a four-parameter model.

KRAS G12D Ba/F3 cells, sequence (P01116 whole entry G12D): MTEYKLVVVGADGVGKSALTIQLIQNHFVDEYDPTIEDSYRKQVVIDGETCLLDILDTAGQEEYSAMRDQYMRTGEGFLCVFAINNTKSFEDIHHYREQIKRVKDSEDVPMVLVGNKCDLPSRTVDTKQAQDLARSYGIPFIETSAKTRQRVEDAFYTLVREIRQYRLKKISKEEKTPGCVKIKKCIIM
T1 sequence (P01116 1-169 isoform P01116-2 G12C/C51S/C80L/C118S): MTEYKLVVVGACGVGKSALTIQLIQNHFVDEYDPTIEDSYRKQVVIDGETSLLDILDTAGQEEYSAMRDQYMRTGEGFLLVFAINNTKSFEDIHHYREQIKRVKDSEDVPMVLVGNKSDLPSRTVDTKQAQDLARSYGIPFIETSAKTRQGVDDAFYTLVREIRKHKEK
T2 sequence (P01116 1-169 isoform P01116-2 G12D): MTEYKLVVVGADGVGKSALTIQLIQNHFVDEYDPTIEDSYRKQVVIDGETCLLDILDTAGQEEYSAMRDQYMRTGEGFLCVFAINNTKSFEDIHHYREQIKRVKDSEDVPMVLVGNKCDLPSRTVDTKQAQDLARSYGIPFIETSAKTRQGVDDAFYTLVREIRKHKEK
KRAS G12V Ba/F3 cells, sequence (P01116 whole entry G12V, canonical isoform): as the sequence (P01116 whole entry G12D) above, with D12V counted along it
KRAS G12C Ba/F3 cells, sequence (P01116 whole entry G12C): as the sequence (P01116 whole entry G12D) above, with D12C counted along it

solubility at 24 h ([1]; McIlvaine buffer pH 4.5, 24 h, read-out: solubility pH 4.5): > 0.11 mg/mL | solubility at 24 h ([1]; McIlvaine buffer pH 6.8, 24 h, read-out: solubility pH 6.8): 0.093 mg/mL (≈ 185 µM) | IC50 (KRAS (G12C)::SOS1): 0.007 µM | GI50 (KRAS G12C Ba/F3 cells): 0.072 µM | IC50 (KRAS (G12D)::SOS1): 0.004 µM | IC50 [2]: 4.21 µM | GI50 (KRAS G12D Ba/F3 cells): 0.043 µM | GI50 (KRAS G12V Ba/F3 cells): 0.094 µM | IC50 (LOVO cells (CRC, G13D)): 0.618 µM
SMILES: C[C@H](Oc1nccc(-c2onc3c2CCC[C@@]32CCCc3sc(N)c(C#N)c32)n1)[C@@H]1C[C@@H]2C[C@@H]2N1C [Ih-1]

Source: patent publication US20250129096A1, “ANNULATED 2-AMINO-3-CYANO THIOPHENES AND DERIVATIVES FOR THE TREATMENT OF CANCER” (Boehringer Ingelheim Int'l GmbH Corp., priority 2021, published 2025)
